In general, Ki refers to the dissociation constant of the complex between target and ligand, obtained from inhibition or displacement. Low readings indicate a stronger hold on the target, high ones a looser hold on the target.

The target of the first assay is T1, Tyrosine-protein phosphatase non-receptor type 2 (Homo sapiens, UniProt P17706).
T1 sequence (P17706 whole entry): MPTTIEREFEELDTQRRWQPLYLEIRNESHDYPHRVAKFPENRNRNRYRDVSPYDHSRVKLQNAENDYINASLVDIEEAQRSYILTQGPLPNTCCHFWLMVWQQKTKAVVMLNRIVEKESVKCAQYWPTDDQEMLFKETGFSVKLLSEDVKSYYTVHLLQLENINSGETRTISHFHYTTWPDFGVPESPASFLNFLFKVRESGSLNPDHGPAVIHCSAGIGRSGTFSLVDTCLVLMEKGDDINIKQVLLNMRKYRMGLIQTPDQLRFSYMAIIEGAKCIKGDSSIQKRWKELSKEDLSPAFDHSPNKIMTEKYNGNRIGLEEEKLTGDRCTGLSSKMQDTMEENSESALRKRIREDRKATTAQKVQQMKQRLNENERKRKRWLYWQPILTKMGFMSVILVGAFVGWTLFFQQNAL
As to the kind of experiment: Enzymatic Assay. The note with it: 25 °C. As for the experimental part:
(§1) The enzymatic assay was carried out at room temperature in 96-well plates. […] All the assays were carried out in duplicate or triplicate and the average results are presented. Ki is derived from IC50 based on competitive inhibition Ki = IC50 x Km/ (Km + [substrate]).
Molecule `O=C(O)COc1c(C(=O)O)sc2c1sc1ccccc12` [5-(carboxymethoxy)-3,7-dithiatricyclo[6.4.0.0^{2,6}]dodeca-1(8),2(6),4,9,11-pentaene-4-carboxylic acid] yielded a Ki of 4.1 µM.

Turning to `O=C(O)COc1c(C(=O)O)sc2c1sc1cc(NC3CCN(S(=O)(=O)Cc4ccccc4)CC3)ccc12` [5-(carboxymethoxy)-10-{[1-(phenylmethane)sulfonylpiperidin-4-yl]amino}-3,7-dithiatricyclo[6.4.0.0^{2,6}]dodeca-1(8),2(6),4,9,11-pentaene-4-carboxylic acid], the Ki was 0.38 µM.

The next assay concerns the target T2, Tyrosine-protein phosphatase non-receptor type 1 [1-298] (Homo sapiens, UniProt P18031).
T2 construct: 1-298
T2 sequence (P18031 whole entry): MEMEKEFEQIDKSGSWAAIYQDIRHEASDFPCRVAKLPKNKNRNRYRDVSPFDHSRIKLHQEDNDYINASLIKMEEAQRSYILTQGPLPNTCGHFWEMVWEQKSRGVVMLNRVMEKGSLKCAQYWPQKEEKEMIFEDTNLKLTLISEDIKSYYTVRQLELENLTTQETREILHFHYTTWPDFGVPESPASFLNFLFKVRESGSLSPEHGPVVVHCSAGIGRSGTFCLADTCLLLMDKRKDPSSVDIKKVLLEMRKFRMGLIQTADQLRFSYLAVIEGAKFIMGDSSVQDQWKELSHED
As to the kind of experiment: Enzymatic Assay. The note with it: 25 °C. As for the experimental part: as §1
`O=C(O)COc1c(C(=O)O)sc2c(Cl)cccc12` [3-(carboxymethoxy)-7-chloro-1-benzothiophene-2-carboxylic acid]: the Ki turned out to be 119 µM. On the same count and under the same terms, next, `Cc1cccc2c(OCC(=O)O)c(C(=O)O)sc12` [3-(carboxymethoxy)-7-methyl-1-benzothiophene-2-carboxylic acid]: 37 µM; `O=C(O)COc1c(C(=O)O)sc2c1sc1ccccc12` [5-(carboxymethoxy)-3,7-dithiatricyclo[6.4.0.0^{2,6}]dodeca-1(8),2(6),4,9,11-pentaene-4-carboxylic acid]: 9.2 µM. On the same count and under the same terms, next, `O=C(O)COc1c(C(=O)O)sc2c1cnc1ccccc12` [5-(carboxymethoxy)-3-thia-8-azatricyclo[7.4.0.0^{2,6}]trideca-1(9),2(6),4,7,10,12-hexaene-4-carboxylic acid]: above 500 µM. Still for that read-out and setting: next, `O=C(O)COc1c(C(=O)O)sc2c1ccc1ccccc12` [5-(carboxymethoxy)-3-thiatricyclo[7.4.0.0^{2,6}]trideca-1(9),2(6),4,7,10,12-hexaene-4-carboxylic acid]: 11 µM. Molecule `O=C(O)COc1c(C(=O)O)sc2c1sc1c(NC3CCCCC3)cccc12` [5-(carboxymethoxy)-9-(cyclohexylamino)-3,7-dithiatricyclo[6.4.0.0^{2,6}]dodeca-1(8),2(6),4,9,11-pentaene-4-carboxylic acid] registered a Ki of 1.7 µM. Still for that read-out and setting: for `O=C(O)COc1c(C(=O)O)sc2c1sc1c(NCC3CCCCC3)cccc12` [5-(carboxymethoxy)-9-[(cyclohexylmethyl)amino]-3,7-dithiatricyclo[6.4.0.0^{2,6}]dodeca-1(8),2(6),4,9,11-pentaene-4-carboxylic acid] the value was 0.92 µM; for `O=C(O)COc1c(C(=O)O)sc2c1sc1c(Cl)cccc12` [5-(carboxymethoxy)-9-chloro-3,7-dithiatricyclo[6.4.0.0^{2,6}]dodeca-1(8),2(6),4,9,11-pentaene-4-carboxylic acid], 10 µM. Still for that read-out and setting: next, `O=C(O)COc1c(C(=O)O)sc2c1sc1cc(NC3CCCCC3)ccc12` [5-(carboxymethoxy)-10-(cyclohexylamino)-3,7-dithiatricyclo[6.4.0.0^{2,6}]dodeca-1(8),2(6),4,9,11-pentaene-4-carboxylic acid]: 0.74 µM; `O=C(O)COc1c(C(=O)O)sc2c1sc1cc(NC3CCOCC3)ccc12` [5-(carboxymethoxy)-10-(oxan-4-ylamino)-3,7-dithiatricyclo[6.4.0.0^{2,6}]dodeca-1(8),2(6),4,9,11-pentaene-4-carboxylic acid]: 2.4 µM. Still for that read-out and setting: for `O=C(O)COc1c(C(=O)O)sc2c1sc1cc(NCC3CCCCC3)ccc12` [5-(carboxymethoxy)-10-[(cyclohexylmethyl)amino]-3,7-dithiatricyclo[6.4.0.0^{2,6}]dodeca-1(8),2(6),4,9,11-pentaene-4-carboxylic acid] the value was 0.68 µM; for `O=C(O)COc1c(C(=O)O)sc2c1sc1cc(Cl)ccc12` [5-(carboxymethoxy)-10-chloro-3,7-dithiatricyclo[6.4.0.0^{2,6}]dodeca-1(8),2(6),4,9,11-pentaene-4-carboxylic acid], 3.5 µM. `CCS(=O)(=O)N1CCC(Nc2ccc3c(c2)sc2c(OCC(=O)O)c(C(=O)O)sc23)CC1` [5-(carboxymethoxy)-10-{[1-(ethanesulfonyl)piperidin-4-yl]amino}-3,7-dithiatricyclo[6.4.0.0^{2,6}]dodeca-1(8),2(6),4,9,11-pentaene-4-carboxylic acid] came in with a Ki of 1.6 µM.

The same assay, now with this note: pH 7; 22 °C.
`CC(Oc1c(C(=O)O)sc2cc(Cl)ccc12)C(=O)O` (centres undefined) [3-(1-carboxyethoxy)-6-chloro-1-benzothiophene-2-carboxylic acid] had a Ki above 2500 µM. `O=C(O)COc1c(C(=O)O)sc2ccccc12` [3-(carboxymethoxy)-1-benzothiophene-2-carboxylic acid] came in with a Ki of 160 µM.

For the molecule `O=C(O)COc1c(C(=O)O)sc2cc(-c3ccc(O)cc3)ccc12` [3-(carboxymethoxy)-6-(4-hydroxyphenyl)-1-benzothiophene-2-carboxylic acid], the Ki worked out at 26 µM. On to `O=C(O)COc1c(C(=O)O)sc2cc(-c3cccs3)ccc12` [3-(carboxymethoxy)-6-(thiophen-2-yl)-1-benzothiophene-2-carboxylic acid], for which the Ki stood at 30 µM. On the same count and under the same terms, for `O=C(O)COc1c(C(=O)O)sc2cc(C(=O)Nc3ccn(-c4ccccc4)n3)ccc12` [3-(carboxymethoxy)-6-[(1-phenyl-1H-pyrazol-3-yl)carbamoyl]-1-benzothiophene-2-carboxylic acid] the value was 20 µM; for `O=C(O)COc1c(C(=O)O)sc2cc(Cl)ccc12` [3-(carboxymethoxy)-6-chloro-1-benzothiophene-2-carboxylic acid], 61 µM; for `Cc1cc2sc(C(=O)O)c(OCC(=O)O)c2cn1` [3-(carboxymethoxy)-6-methylthieno[3,2-c]pyridine-2-carboxylic acid], above 2500 µM. Same read-out and setting: next, `O=C(O)COc1c(C(=O)O)sc2cc(-c3ccccc3)ccc12` [3-(carboxymethoxy)-6-phenyl-1-benzothiophene-2-carboxylic acid]: 128 µM; `O=C(O)COc1c(C(=O)O)oc2ncccc12` [3-(carboxymethoxy)furo[2,3-b]pyridine-2-carboxylic acid]: above 2500 µM; `O=C(O)COc1cc2ccccc2cc1C(=O)O` [3-(carboxymethoxy)naphthalene-2-carboxylic acid]: 860 µM. The same measure, in the same setting: for `O=C(O)COc1c(C(=O)O)sc2cccnc12` [3-(carboxymethoxy)thieno[3,2-b]pyridine-2-carboxylic acid] the value was 77 µM; for `O=C(O)COc1c(C(=O)O)sc2ccsc12` [3-(carboxymethoxy)thieno[3,2-b]thiophene-2-carboxylic acid], 280 µM. `O=C(O)c1sc2cc(Cl)ccc2c1OC(F)C(=O)O` (centres undefined) [3-[carboxy(fluoro)methoxy]-6-chloro-1-benzothiophene-2-carboxylic acid] gave a Ki of 52 µM. Regarding `O=C(O)COc1c(C(=O)O)sc2cc(Br)ccc12` [6-bromo-3-(carboxymethoxy)-1-benzothiophene-2-carboxylic acid], the Ki came out at 42 µM.

These data come from BindingDB's records for doi:10.1016/j.bmc.2005.11.005 (Wyeth Research, 2006).
